Reference: PubChem BioAssay (NCI)
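Results reflect a 48-hour exposure of cells in 96-well plates to compound at five concentrations. TGI denotes the concentration required for complete inhibition of growth.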

Key:
Experiment in all cases: NCI tumour cell line growth inhibition, 48 h
[1] = system: 786-0 renal
[2] = system: A498 renal
[3] = system: A549 NSCLC
[4] = system: ACHN renal
[5] = system: BT-549 breast
[6] = system: CAKI-1 renal
[7] = system: CCRF-CEM leukemia
[8] = system: COLO 205 colon
[9] = system: DU-145 prostate
[10] = system: EKVX NSCLC
[11] = system: HCC-2998 colon
[12] = system: HCT-116 colon
[13] = system: HCT-15 colon
[14] = system: HL-60(TB) leukemia
[15] = system: HOP-62 NSCLC
[16] = system: HOP-92 NSCLC
[17] = system: HS 578T breast
[18] = system: HT29 colon
[19] = system: IGROV1 ovarian
[20] = system: K-562 leukemia
[21] = system: KM12 colon
[22] = system: LOX IMVI melanoma
[23] = system: M14 melanoma
[24] = system: MALME-3M melanoma
[25] = system: MCF7 breast
[26] = system: MDA-MB-231 breast
[27] = system: MDA-MB-435
[28] = system: MDA-N
[29] = system: MOLT-4 leukemia
[30] = system: NCI-H226 lung
[31] = system: NCI-H23 lung
[32] = system: NCI-H460 lung
[33] = system: NCI-H522 lung
[34] = system: NCI/ADR-RES ovarian
[35] = system: OVCAR-3 ovarian
[36] = system: OVCAR-4 ovarian
[37] = system: OVCAR-5 ovarian
[38] = system: OVCAR-8 ovarian
[39] = system: PC-3 prostate
[40] = system: RPMI-8226 leukemia
[41] = system: RXF 393 renal
[42] = system: SF-268 CNS
[43] = system: SF-295 CNS
[44] = system: SF-539 CNS
[45] = system: SK-MEL-2 melanoma
[46] = system: SK-MEL-28 melanoma
[47] = system: SK-MEL-5 melanoma
[48] = system: SK-OV-3 ovarian
[49] = system: SN12C renal
[50] = system: SNB-19 CNS
[51] = system: SNB-75 CNS
[52] = system: SR leukemia
[53] = system: SW-620 colon
[54] = system: T-47D breast
[55] = system: TK-10 renal
[56] = system: U251 CNS
[57] = system: UACC-257 melanoma
[58] = system: UACC-62 melanoma
[59] = system: UO-31 renal

## CCC1CCC2C3CC=C4CC(OC(C)=O)C(N)CC4(C)C3CCC12C (centres undefined)
[1]
  TGI: 3.79 µM
[2]
  TGI: 9.63 µM
[3]
  TGI: 5.13 µM
[4]
  TGI: 17.6 µM
[5]
  TGI: 10.6 µM
[6]
  TGI: 22.9 µM
[7]
  TGI: 10 µM
[8]
  TGI: 10 µM
[9]
  TGI: 8.33 µM
[10]
  TGI: 13.8 µM
[11]
  TGI: 3.06 µM
[12]
  TGI: 6.14 µM
[13]
  TGI: 12.5 µM
[14]
  TGI: 4.48 µM
[15]
  TGI: 4.47 µM
[16]
  TGI: 10.8 µM
[17]
  TGI: 5.1 µM
[18]
  TGI: 6.32 µM
[19]
  TGI: 18.2 µM
[20]
  TGI: 4.91 µM
[21]
  TGI: 8.64 µM
[22]
  TGI: 4.12 µM
[23]
  TGI: 3.6 µM
[24]
  TGI: 8.33 µM
[25]
  TGI: 14 µM
[26]
  TGI: 4.09 µM
[27]
  TGI: 5.66 µM
[28]
  TGI: 6.92 µM
[29]
  TGI: 8.01 µM
[30]
  TGI: 39.7 µM
[31]
  TGI: 13.6 µM
[32]
  TGI: 3.53 µM
[33]
  TGI: 6.67 µM
[34]
  TGI: 14.2 µM
[35]
  TGI: 10.5 µM
[36]
  TGI: 18 µM
[37]
  TGI: 14.1 µM
[38]
  TGI: 6.75 µM
[39]
  TGI: 7.97 µM
[40]
  TGI: 8.3 µM
[41]
  TGI: 3.68 µM
[42]
  TGI: 9.08 µM
[43]
  TGI: 8.03 µM
[44]
  TGI: 3.5 µM
[45]
  TGI: 8.32 µM
[46]
  TGI: 10.4 µM
[47]
  TGI: 3.7 µM
[48]
  TGI: 24.1 µM
[49]
  TGI: 9.87 µM
[50]
  TGI: 6.49 µM
[51]
  TGI: 5.51 µM
[52]
  TGI: 6.07 µM
[53]
  TGI: 11.2 µM
[54]
  TGI: 12.6 µM
[55]
  TGI: 6.1 µM
[56]
  TGI: 3.68 µM
[57]
  TGI: 4.55 µM
[58]
  TGI: 9.32 µM
[59]
  TGI: 9.68 µM
